Assay [1] concerns the target T1, recombinant human PARP (PARP1) (Homo sapiens, UniProt P09874).
T1 construct: Full length human PARP (PARP1) is assembled from PCR fragments; His6 tag with TEV site, from the pFastBac-HTb vector (own knowledge of the vector); made in house; host or cells: insect cells, baculovirus (Bac-to-Bac, Gibco-BRL)
In words: PARP enzyme assay, Method A (radioactivity or 'ELISA' enzyme assay with partially purified enzyme). The format is biochemical. Conditions: recombinant human PARP preparation, radioactive or ELISA enzyme assay. The method, boiled down:
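Partially purified recombinant full-length His-tagged human PARP1, baculovirus-expressed. Radioactive format: 100 μg/mL sonicated DNA, 100 μg/mL histones, 100 mM Tris pH 8.0, 10 mM MgCl2, 200 μM labeled NAD, 10 min 37 °C or 60 min RT, TCA-precipitated counts. ELISA format: 250 μM NAD plus biotin-NAD on histone plates, TMB A450.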

Assay [2] deals with intracellular synthesis of poly(ADP-ribose) in HL60 cells. Nature of the assay: Cell-based PARP assay (poly(ADP-ribose) immunodetection in fixed cells). Conditions: Homo sapiens, HL-60, overnight incubation with compound, serum-free media. The method, then: The following example illustrates the efficacy of the compounds of this invention in inhibiting the effects of PARP in a cell based assay.
Reagents: Media RMPI 1640+Glutamax: Gibco 61870-044); TBST/milk, TBST (Sigma T93039) containing 5% skimmed milk (Nestle Carnation nonfat dry milk)
HL60 cells at […] in serum free media are seeded into the wells of a 96-well plate at 100 μL/well. The plate is pre-incubated for 3 hr under normal tissue culture conditions. One hundred μL of serum-free media containing compound at 2× the required concentration in 0.6% DMSO are added (or 0.6% DMSO only to controls and blanks). The plate is incubated overnight under normal tissue culture conditions, then centrifuged at 190×g for 5 min at 4° C. to pellet cells. The media is carefully removed by aspiration, and the cells are incubated in 100 μL/well ice-cold 0.56% KCl for 2 min on ice. The plate is centrifuged as above to pellet cells, the KCl removed by aspiration, and 100 μL/well ice-cold methanol added. After 4 min on ice, methanol is removed by aspiration and the cells air-dried for 10-15 min at rt. The cells are washed with PBS×3, then washed with TBST/milk (1 wash, 5 min incubation at rt). The cells are incubated with 100 μL/well 0.25% Triton X 100 in PBS for 10 min at RT, then washed x# with PBS and ×1 with TBST. The cells are blocked for 1 hr with TBST/milk (200 μL/well) and then washed ×1 with TBST. The fixed cells are incubated with primary antibody (Calbiochem cat no. 528815) at 1:2000 dilution in TBST/milk (100 μL/well, overnight at 4 deg C.). The cells are washed with TBST (2 rinses, 1×15 min, 2×5 min at RT). The cells are incubated with secondary antibody (anti-rabbit Ig-biotin conjugate, Amersham RPN1004) in TBST/milk at 1:3500 dilution, 100 μL/well for 1 hr at RT. The cells are washed with TBST (2 rinses, 1×15 min, 2×5 min at RT). The cells are then incubated with 100 μL/well of 4-MUP (Sigma, M3168) in the dark for 4 hrs. The fluorescence is read using a plate reader (excitation at 360 nm, emission at 440 nm). To calculate compound effects, the fluorescence of the blank (no cells) is subtracted from all data. Fluorescence obtained with a standard cell-permeable potent inhibitor at 30 μM is subtracted from all other groups as this appears to represent a true blank. Compound effects can then be determined: a PARP inhibitor blocks the intracellular synthesis of poly(ADP-ribose), and results in a decreased reactivity (reduced final fluorescence) with primary antibody in the fixed and permeabilized cells.
The results obtained from this study are expressed as EC50 (median effective concentration of the test compound that was effective in preventing the cell death—expressed in micromolar (μM) concentration) for each of the tested compounds and are summarized in Table 2.

Counter-ions that a name gives are not always drawn.

As usually defined, the IC50 is the point on the concentration scale where inhibition reaches its midpoint. What is called EC50 is the midpoint of the concentration-response curve.

T1 sequence (P09874 whole entry, the tested form may be a part): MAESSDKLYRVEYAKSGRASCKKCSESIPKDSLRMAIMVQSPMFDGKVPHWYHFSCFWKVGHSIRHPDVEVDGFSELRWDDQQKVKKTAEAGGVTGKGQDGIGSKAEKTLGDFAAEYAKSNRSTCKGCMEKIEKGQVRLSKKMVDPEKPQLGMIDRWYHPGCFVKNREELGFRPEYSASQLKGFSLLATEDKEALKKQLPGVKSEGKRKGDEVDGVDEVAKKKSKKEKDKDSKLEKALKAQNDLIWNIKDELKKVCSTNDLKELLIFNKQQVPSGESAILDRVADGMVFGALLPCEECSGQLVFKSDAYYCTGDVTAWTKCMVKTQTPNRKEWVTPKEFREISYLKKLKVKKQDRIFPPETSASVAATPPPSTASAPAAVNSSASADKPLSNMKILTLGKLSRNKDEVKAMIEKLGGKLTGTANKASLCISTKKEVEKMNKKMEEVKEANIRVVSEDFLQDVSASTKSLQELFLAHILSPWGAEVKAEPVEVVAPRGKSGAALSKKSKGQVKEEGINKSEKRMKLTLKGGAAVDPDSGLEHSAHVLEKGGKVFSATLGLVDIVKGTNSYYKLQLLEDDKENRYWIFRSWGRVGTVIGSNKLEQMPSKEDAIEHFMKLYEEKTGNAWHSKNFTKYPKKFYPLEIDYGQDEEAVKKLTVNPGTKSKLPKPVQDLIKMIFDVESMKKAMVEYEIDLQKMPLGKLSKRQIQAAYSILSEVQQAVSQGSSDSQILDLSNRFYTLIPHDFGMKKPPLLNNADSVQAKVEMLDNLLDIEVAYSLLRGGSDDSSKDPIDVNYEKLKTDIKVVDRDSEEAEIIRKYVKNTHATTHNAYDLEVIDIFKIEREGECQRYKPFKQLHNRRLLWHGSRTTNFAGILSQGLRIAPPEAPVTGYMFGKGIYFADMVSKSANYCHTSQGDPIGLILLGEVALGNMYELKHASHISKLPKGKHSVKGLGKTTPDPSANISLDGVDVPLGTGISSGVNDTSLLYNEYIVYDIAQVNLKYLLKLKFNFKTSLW

For `Cc1[nH]c(=O)c2c(c1-c1cccc(C#N)c1)CCCC2` [Example 5, 3-(3-Methyl-1-oxo-1,2,5,6,7,8-hexahydroisoquinolin-4-yl)benzonitrile], in assay [1], the 50% inhibitory concentration (IC50) came to 0.2 µM. The EC50 in assay [2] was determined as 500 nM.

`CCc1cc(-c2noc(C)n2)c(C)[nH]c1=O` [Example 22, 3-Ethyl-6-methyl-5-(5-methyl-1,2,4-oxadiazol-3-yl)-1H-pyridin-2-one]: the IC50 in assay [1] was 0.31 µM. Also, in assay [2], the half-maximal effective concentration (EC50) came out at 120 nM.

Consider `CCc1cc(-c2ccc(S(=O)(=O)N3CCN(c4ccc(F)cc4)CC3)s2)c(C)[nH]c1=O` [Example 25, 3-Ethyl-5-{5-[4-(4-fluorophenyl)piperazine-1-sulfonyl]thiophen-2-yl}-6-methyl-1H-pyridin-2-one], for which the 50% inhibitory concentration (IC50) in assay [1] worked out at 0.76 µM. The 50% effective concentration (EC50) in assay [2] came out at 4880 nM.

As to `CCc1cc(-c2ccc(S(=O)(=O)NCc3ccc(C(F)(F)F)cc3)s2)c(C)[nH]c1=O` [Example 26, 5-(5-Ethyl-2-methyl-6-oxo-1,6-dihydropyridin-3-yl)thiophene-2-sulfonic acid 4-trifluoromethylbenzylamide], the 50% inhibitory concentration (IC50) in assay [1] is 0.19 µM. In addition, the EC50 in assay [2] worked out at 2940 nM.

As for `CCc1cc(-c2ccc(S(=O)(=O)NCc3cc(F)cc(F)c3)s2)c(C)[nH]c1=O` [Example 27, 5-(5-Ethyl-2-methyl-6-oxo-1,6-dihydropyridin-3-yl)thiophene-2-sulfonic acid 3,5-difluorobenzylamide], the IC50 in assay [1] stood at 0.1 µM. The EC50 in assay [2] turned out to be 14200 nM.

Turning to `CCc1cc(-c2ccc(S(=O)(=O)NC3CCN(Cc4ccccc4)CC3)s2)c(C)[nH]c1=O` [Example 39, 5-(5-Ethyl-2-methyl-6-oxo-1,6-dihydropyridin-3-yl)thiophene-2-sulfonic acid (1-benzylpiperidin-4-yl)amide hydrochloride], in assay [1], the IC50 is 0.07 µM. In addition, in assay [2], the 50% effective concentration (EC50) came out at 500 nM.

With `CCc1cc(-c2ccc(S(=O)(=O)NCCCN3CCCCC3)s2)c(C)[nH]c1=O` [Example 63, 5-(5-Ethyl-2-methyl-6-oxo-1,6-dihydro-pyridin-3-yl)-thiophene-2-sulfonic acid (3-piperidin-1-yl-propyl)-amide hydrochloride], the IC50 in assay [1] stood at 0.42 µM. The concentration giving a half-maximal response (EC50) in assay [2] worked out at 430 nM.

Consider `CCc1cc(-c2ccc(S(=O)(=O)N3CCC(N4CCCCC4)CC3)s2)c(C)[nH]c1=O` [Example 67, 3-Ethyl-6-methyl-5-{5-[(4-piperidin-1-yl)piperidine-1-sulfonyl]thiophen-2-yl}-1H-pyridin-2-one hydrochloride], for which the 50% inhibitory concentration (IC50) in assay [1] turned out to be 0.3 µM. The EC50 in assay [2] came to 3110 nM.

As for `CCc1cc(-c2ccc(S(=O)(=O)N3CCCC(Cn4ccnc4)C3)s2)c(C)[nH]c1=O` (stereo not shown) [Example 70, 3-Ethyl-5-{5-[(3-imidazo-1-yl)methylpiperidine-1-sulfonyl]thiophene-2-yl}-6-methyl-1H-pyridin-2-one hydrochloride], the half-inhibitory concentration (IC50) in assay [1] is 0.26 µM. Moreover, in assay [2], the concentration giving a half-maximal response (EC50) was 260 nM.

`CCc1cc(-c2ccc(S(=O)(=O)N3CCC(O)C3)s2)c(C)[nH]c1=O` (stereo not shown) [Example 85, 3-Ethyl-5-[5-(3-hydroxypyrrolidine-1-sulfonyl)thiophen-2-yl]-6-methyl-1H-pyridin-2-one]: the IC50 in assay [1] came out at 0.31 µM. The half-maximal effective concentration (EC50) in assay [2] is 330 nM.

Take `CCc1cc(-c2ccc(S(=O)(=O)NCCN(C)C)s2)c(C)[nH]c1=O` [Example 93, 5-(5-Ethyl-2-methyl-6-oxo-1,6-dihydropyridin-3-yl)thiophene-2-sulfonic acid (2-dimethylaminoethyl)amide hydrochloride]: the IC50 in assay [1] is 0.85 µM. The half-maximal effective concentration (EC50) in assay [2] turned out to be 560 nM.

Consider `CCc1cc(-c2ccc(S(=O)(=O)NCCN3CCCC3)s2)c(C)[nH]c1=O` [Example 95, 5-(5-Ethyl-2-methyl-6-oxo-1,6-dihydropyridin-3-yl)thiophene-2-sulfonic acid (2-pyrrolidin-1-yl)ethylamide hydrochloride], for which the IC50 in assay [1] was 0.2 µM. Further, in assay [2], the 50% effective concentration (EC50) came out at 220 nM.

Take `CCc1cc(-c2ccc(S(=O)(=O)NCc3cccnc3)s2)c(C)[nH]c1=O` [Example 101, 5-(5-Ethyl-2-methyl-6-oxo-1,6-dihydropyridin-3-yl)-thiophene-2-sulfonic acid (pyridin-3-ylmethyl)amide hydrochloride]: the IC50 in assay [1] amounted to 0.17 µM. Further, the EC50 in assay [2] was found to be 50 nM.

Regarding `CCc1cc(-c2ccc(S(=O)(=O)NCCc3cccnc3)s2)c(C)[nH]c1=O` [Example 107, 5-(5-Ethyl-2-methyl-6-oxo-1,6-dihydropyridin-3-yl)thiophene-2-sulfonic acid (2-pyridin-3-yl-ethyl)amide hydrochloride], the IC50 in assay [1] was 0.08 µM. In addition, in assay [2], the concentration giving a half-maximal response (EC50) is 30 nM.

In the case of `CCc1cc(-c2ccc(S(=O)(=O)NCCc3ccncc3)s2)c(C)[nH]c1=O` [Example 109, 5-(5-Ethyl-2-methyl-6-oxo-1,6-dihydropyridin-3-yl)thiophene-2-sulfonic acid (2-pyridin-4-yl-ethyl)amide hydrochloride], the IC50 in assay [1] amounted to 0.1 µM. For the same compound, in assay [2], the 50% effective concentration (EC50) came out at 240 nM.

As to `CCc1cc(-c2ccc(S(=O)(=O)NCc3ccncc3)s2)c(C)[nH]c1=O` [Example 110, 5-(5-ethyl-2-methyl-6-oxo-1,6-dihydropyridin-3-yl)thiophene-2-sulfonic acid (pyridin-4-ylmethyl)amide hydrochloride], the IC50 in assay [1] came out at 0.08 µM. The EC50 in assay [2] was 20 nM.

In the case of `CCc1cc(-c2ccc(S(=O)(=O)NCc3nc4ccccc4[nH]3)s2)c(C)[nH]c1=O` [Example 118, 5-(5-Ethyl-2-methyl-6-oxo-1,6-dihydro-pyridin-3-yl)thiophene-2-sulfonic acid (1H-benzimidazol-2-ylmethyl)amide hydrochloride], the IC50 in assay [1] amounted to 0.15 µM. Further, in assay [2], the EC50 was found to be 30000 nM.

As to `CCc1cc(-c2ccc(S(=O)(=O)NCCNC(C)=O)s2)c(C)[nH]c1=O` [Example 119, N-{2-[5-(5-Ethyl-2-methyl-6-oxo-1,6-dihydropyridin-3-yl)thiophene-2-sulfonylamino]ethyl}acetamide], the concentration for half-maximal inhibition (IC50) in assay [1] is 0.38 µM. Moreover, in assay [2], the concentration giving a half-maximal response (EC50) amounted to 800 nM.

`CCc1cc(-c2ccc(CN3CCCC(O)C3)s2)c(C)[nH]c1=O` (stereo not shown) [Example 126, 3-Ethyl-5-[5-(3-hydroxypiperidin-1-ylmethyl)thiophen-2-yl]-6-methyl-1H-pyridin-2-one hydrochloride]: the 50% inhibitory concentration (IC50) in assay [1] worked out at 0.43 µM. For the same compound, the 50% effective concentration (EC50) in assay [2] was 30800 nM.

`CCc1cc(-c2ccc(CNC(C)c3ccccc3)s2)c(C)[nH]c1=O` (stereo not shown) [Example 135, 3-Ethyl-6-methyl-5-{5-[(1-phenyl-ethylamino)-methyl]thiophen-2-yl}-1H-pyridin-2-one hydrochloride]: the concentration for half-maximal inhibition (IC50) in assay [1] came out at 0.35 µM. Also, in assay [2], the half-maximal effective concentration (EC50) worked out at 12200 nM.

Turning to `CCc1cc(-c2ccc(CNC(C)CCc3ccccc3)s2)c(C)[nH]c1=O` (stereo not shown) [Example 136, 3-Ethyl-6-methyl-5-{5-[(1-methyl-3-phenyl-propylamino)-methyl]thiophen-2-yl}-1H-pyridin-2-one hydrochloride], the 50% inhibitory concentration (IC50) in assay [1] was determined as 0.46 µM. Moreover, in assay [2], the EC50 turned out to be 14700 nM.

In the case of `CCc1cc(-c2ccc(CNCC3CCCCC3)s2)c(C)[nH]c1=O` [Example 143, 5-(5-Cyclohexylmethylaminomethylthiophen-2-yl)-3-ethyl-6-methyl-1H-pyridin-2-one hydrochloride], the IC50 in assay [1] came out at 0.39 µM. Besides, in assay [2], the concentration giving a half-maximal response (EC50) came out at 1430 nM.

On to `CCc1cc(-c2ccc(CNCCOc3ccccc3)s2)c(C)[nH]c1=O` [Example 146, 3-Ethyl-6-methyl-5-{5-[(2-phenoxyethylamino)-methyl]thiophen-2-yl}-1H-pyridin-2-one hydrochloride], for which the IC50 in assay [1] came to 0.24 µM. In assay [2], the concentration for a half-maximal effect (EC50) turned out to be 970 nM.

(Values after patent US8173682B2, “Substituted pyridones as inhibitors of poly(ADP-ribose) polymerase (PARP)” (Aventis Pharmaceuticals Inc., priority 2004, dated 2012).)
